Reference: patent publication US9951055B2, “Thiazole-based inhibitors of scavenger receptor BI” (THE BROAD INSTITUTE, INC., priority 2012, dated 2018)

Tests used:
[1] = Cell cytotoxicity assay (CellTiter-Glo); type: cell-based, Chinese hamster; settings: Chinese hamster, ldlA[mSR-BI] cells; after 24 hours of treatment
Method: It is possible that a compound will cause cells to decrease HDL-mediated DiI uptake due to nonspecific consequences of cellular toxicity, representing a second class of false positive hits. The cells were treated with compounds for 3 hours or 24 hours, and then cell viability was measured using the CellTiter-Glo Assay (Promega), a luciferase-based reagent that measures cellular ATP levels. The compounds were tested at different concentrations to determine IC50 values. […] Compounds that were active in the primary assay but toxic below 30 μM at 24 hours (but nontoxic at 3 hours) were still considered. […] Data were normalized against DMSO and the positive control (1 μM BLT-1) in Genedata Assay Analyzer.
All available dry powder samples of the remaining, non-quenching compounds were procured from commercial sources and purities were determined. The compounds obtained were then retested in the primary assay and in the cytotoxicity assays. We wanted to rule out any compounds that were cytotoxic, especially in the 3-hour time span of the primary DiI-HDL uptake assay. Therefore, compounds were tested in ldlA[mSR-BI]cells for cytotoxicity at 3 hours and 24 hours using the CellTiter-Glo assay (Promega) that measures cellular ATP as a marker of cell viability. […] Compounds were screened for inhibition of endocytosis using labeled transferrin, which is known to bind the transferrin receptor, enter cells by clathrin-mediated endocytosis, and move to endosomes before being recycled to the cell surface. The BLT compounds have also been tested for potential interference with endocytosis and show no such activity.

SR-BI [2] = molecular target: T1, SR-BI (Mus musculus, UniProt Q61009); test: Cholesterol efflux assay; type: cell-based; set-up: expressed in transfected cells
T1 sequence (Q61009 1-509): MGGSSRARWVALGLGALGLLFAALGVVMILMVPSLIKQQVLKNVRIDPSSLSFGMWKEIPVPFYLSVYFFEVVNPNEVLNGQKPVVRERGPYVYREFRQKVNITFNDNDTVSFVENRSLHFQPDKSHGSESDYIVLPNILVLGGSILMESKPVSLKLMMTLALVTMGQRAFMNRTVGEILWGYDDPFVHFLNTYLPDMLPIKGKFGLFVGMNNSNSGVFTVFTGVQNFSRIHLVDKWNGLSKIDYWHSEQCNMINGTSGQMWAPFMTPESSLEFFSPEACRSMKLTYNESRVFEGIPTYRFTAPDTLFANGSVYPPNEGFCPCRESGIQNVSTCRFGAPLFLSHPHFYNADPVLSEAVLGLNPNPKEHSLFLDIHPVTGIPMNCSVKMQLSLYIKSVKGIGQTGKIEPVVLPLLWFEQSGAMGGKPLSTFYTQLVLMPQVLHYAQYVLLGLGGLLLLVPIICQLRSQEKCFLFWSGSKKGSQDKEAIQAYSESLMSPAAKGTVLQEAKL
Method: SR-BI also mediates bidirectional flux (e.g. efflux) of unesterified or ‘free’ cholesterol (FC) between cells and HDL or other acceptors. In vivo, the greatest SR-BI-mediated selective uptake occurs in the liver and steroidogenic organs. This assay is used to determine if the compounds alter the efflux of FC to HDL.
On Day 0, 50,000 cells per well were plated in 24-well plates. On the following day, the media was removed and [^3H]cholesterol in lipoprotein-deficient media was added. On Day 1, the medium was replaced with Ham's F12 medium supplemented with 10% bovine lipoprotein deficient serum with 1 μCi/ml [1,2-^3H]cholesterol (40-60 Ci/mmol). On Day 3, the cells were washed to remove serum and incubated in Ham's F12 plus 1% fatty acid-free BSA. On Day 4, the cells were washed and pretreated with compounds for 1 hour. Subsequently, the cells were incubated for an additional 2 hours with the same concentrations of small molecules and with unlabeled HDL (final HDL concentration of 100 μg protein/ml). The medium was collected to determine released cholesterol, and the cells were lysed. The amount of [^3H]cholesterol in the medium and cells was determined using liquid scintillation counting. Total cellular [^3H]cholesterol was calculated as the sum of the radioactivity in the efflux medium plus the radioactivity in the cells and was used to calculate the [^3H]cholesterol efflux (percent of total [^3H]cholesterol released into the medium).

SR-BI [3] = molecular target: T1, SR-BI; test: HDL binding assay (Alexa 488 HDL); type: cell-based; set-up: expressed in transfected cells; settings: Alexa-488 labeled HDL particles
Method: HDL binding was assessed using Alexa Fluor 488-labeled HDL particles. For this assay, the Alexa 488 dye was covalently bound to apolipoprotein components of the HDL particle via primary amines; thus, no transfer of the fluorophore to cell membranes occurs. In this manner, direct binding of the HDL particles to SR-BI can be measured. As a positive control, BLT-1, which is known to increase binding of HDL to SR-BI, was used at 1 μM (12). It is possible that a compound can reduce binding of HDL to the receptor, and this would lead to a decrease in signal. This assay is used to characterize the mechanism of action of a particular compound; therefore, any outcome in the assay is acceptable. Data were normalized against DMSO and the positive control (1 μM BLT-1) in Genedata Assay Analyzer.

SR-BI [4] = molecular target: T1, SR-BI; test: Radioactive HDL uptake assay (wild type SR-BI); type: cell-based, murine; set-up: expressed in transfected cells; host or cells: ldlA[mSR-BI]; (CHO ldlA7 derivative lacking the LDL receptor); settings: [3H]cholesteryl ester HDL; read-out: average IC50, radiolabeled version of the uptake assay
From the text: Radioactive HDL Uptake Assay (wild type SR-BI) (SA 8: AID No. 588836)
The goal of this assay is to verify compounds that disrupt the lipid uptake from HDL particles to SR-BI scavenger receptor-expressing cells using an alternative means of labeling HDL particles and avoiding any type of fluorescence measurement. To measure this binding event, HDL particles are labeled with [^3H]cholesteryl ester and added to mSR-BI expressing cells. Cells take up the radioactive lipids from HDL via SR-BI in 2 to 3 hours. After significant uptake of the lipids from HDL, the radiolabel can be detected by liquid scintillation counting. The level of radioactivity correlates with the amount of HDL lipid uptake. The uptake of lipid from the HDL particles particles can be inhibited by the compound BLT-1 or when co-treated with an excess of unlabeled HDL. The ldlA[mSR-BI]-expressing cells utilized in the assay are from a Chinese Hamster Ovary (CHO) cell line lacking expression of the LDL receptors and overexpressing the scavenger receptor, SR-BI. Inhibitors of SR-BI and HDL lipid uptake will have a reduction in liquid scintillation counts.

Compound: COCC(=O)N1CCc2cc(-c3csc(NC(=O)c4cc(OC)cc(OC)c4)n3)ccc21 [Compound 137, 3,5-Dimethoxy-N-(4-(1-(2-methoxyacetyl)indolin-5-yl)thiazol-2-yl)benzamide]
- EC50 at 24 h [1]: > 35000 nM
- reduction of efflux of free cholesterol from cells (SR-BI [2]; during the course of the assay): up to 50%
- inhibition of efflux of cholesterol (SR-BI [2]; listed as Probe 278): Inhibits efflux of cholesterol
- inhibition of efflux of cholesterol (SR-BI [2]; listed as compound of Formula (II)): inhibit efflux of cholesterol
- binding of HDL to SR-BI (SR-BI [3]): increases binding of HDL to the receptor
- IC50 (SR-BI [4]): 1000 nM
